Laboratory results from PubChem BioAssay (NCI).
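Tested at 5 concentrations; 48 h exposure; 96-well plates; endpoints linearly interpolated, else capped at highest concentration. TGI denotes the concentration required for complete inhibition of growth.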

Legend:
Test in all cases: inhibition of tumour cell growth, NCI panel, 48 h
786-0 renal = system: 786-0 renal
A498 renal = system: A498 renal
A549 NSCLC = system: A549 NSCLC
ACHN renal = system: ACHN renal
BT-549 breast = system: BT-549 breast
CAKI-1 renal = system: CAKI-1 renal
CCRF-CEM leukemia = system: CCRF-CEM leukemia
COLO 205 colon = system: COLO 205 colon
DU-145 prostate = system: DU-145 prostate
EKVX NSCLC = system: EKVX NSCLC
HCC-2998 colon = system: HCC-2998 colon
HCT-116 colon = system: HCT-116 colon
HCT-15 colon = system: HCT-15 colon
HL-60(TB) leukemia = system: HL-60(TB) leukemia
HOP-62 NSCLC = system: HOP-62 NSCLC
HOP-92 NSCLC = system: HOP-92 NSCLC
HS 578T breast = system: HS 578T breast
HT29 colon = system: HT29 colon
IGROV1 ovarian = system: IGROV1 ovarian
K-562 leukemia = system: K-562 leukemia
KM12 colon = system: KM12 colon
M14 melanoma = system: M14 melanoma
MALME-3M melanoma = system: MALME-3M melanoma
MCF7 breast = system: MCF7 breast
MDA-MB-231 breast = system: MDA-MB-231 breast
MDA-MB-435 = system: MDA-MB-435
MDA-N = system: MDA-N
MOLT-4 leukemia = system: MOLT-4 leukemia
NCI-H226 lung = system: NCI-H226 lung
NCI-H23 lung = system: NCI-H23 lung
NCI-H460 lung = system: NCI-H460 lung
NCI-H522 lung = system: NCI-H522 lung
NCI/ADR-RES ovarian = system: NCI/ADR-RES ovarian
OVCAR-3 ovarian = system: OVCAR-3 ovarian
OVCAR-4 ovarian = system: OVCAR-4 ovarian
OVCAR-5 ovarian = system: OVCAR-5 ovarian
OVCAR-8 ovarian = system: OVCAR-8 ovarian
PC-3 prostate = system: PC-3 prostate
RPMI-8226 leukemia = system: RPMI-8226 leukemia
RXF 393 renal = system: RXF 393 renal
SF-268 CNS = system: SF-268 CNS
SF-295 CNS = system: SF-295 CNS
SF-539 CNS = system: SF-539 CNS
SK-MEL-2 melanoma = system: SK-MEL-2 melanoma
SK-MEL-28 melanoma = system: SK-MEL-28 melanoma
SK-MEL-5 melanoma = system: SK-MEL-5 melanoma
SK-OV-3 ovarian = system: SK-OV-3 ovarian
SN12C renal = system: SN12C renal
SNB-19 CNS = system: SNB-19 CNS
SR leukemia = system: SR leukemia
T-47D breast = system: T-47D breast
TK-10 renal = system: TK-10 renal
U251 CNS = system: U251 CNS
UACC-257 melanoma = system: UACC-257 melanoma
UACC-62 melanoma = system: UACC-62 melanoma
UO-31 renal = system: UO-31 renal
LOX IMVI melanoma = system: LOX IMVI melanoma
SNB-75 CNS = system: SNB-75 CNS
SW-620 colon = system: SW-620 colon

SMILES: CCCCn1c(N)c(-c2nc3ccccc3o2)sc1=S
- TGI (786-0 renal): 33 µM
- TGI (A498 renal): 98.8 µM
- TGI (A549 NSCLC): 29.8 µM
- TGI (ACHN renal): 23.3 µM
- TGI (BT-549 breast): 75.2 µM
- TGI (CAKI-1 renal): 41 µM
- TGI (CCRF-CEM leukemia): > 100 µM
- TGI (COLO 205 colon): > 100 µM
- TGI (DU-145 prostate): 35.9 µM
- TGI (EKVX NSCLC): 81.8 µM
- TGI (HCC-2998 colon): > 100 µM
- TGI (HCT-116 colon): 24.6 µM
- TGI (HCT-15 colon): 47.5 µM
- TGI (HL-60(TB) leukemia): > 100 µM
- TGI (HOP-62 NSCLC): 39.9 µM
- TGI (HOP-92 NSCLC): > 100 µM
- TGI (HS 578T breast): 77.6 µM
- TGI (HT29 colon): 78 µM
- TGI (IGROV1 ovarian): 44.1 µM
- TGI (K-562 leukemia): > 100 µM
- TGI (KM12 colon): > 100 µM
- TGI (M14 melanoma): > 100 µM
- TGI (MALME-3M melanoma): 40.2 µM
- TGI (MCF7 breast): > 100 µM
- TGI (MDA-MB-231 breast): 34.3 µM
- TGI (MDA-MB-435): 38.5 µM
- TGI (MDA-N): 69.1 µM
- TGI (MOLT-4 leukemia): > 100 µM
- TGI (NCI-H226 lung): 43.1 µM
- TGI (NCI-H23 lung): 37.6 µM
- TGI (NCI-H460 lung): 42.6 µM
- TGI (NCI-H522 lung): 31.5 µM
- TGI (NCI/ADR-RES ovarian): 46.8 µM
- TGI (OVCAR-3 ovarian): 33.9 µM
- TGI (OVCAR-4 ovarian): 19.9 µM
- TGI (OVCAR-5 ovarian): 53.6 µM
- TGI (OVCAR-8 ovarian): 37.7 µM
- TGI (PC-3 prostate): > 100 µM
- TGI (RPMI-8226 leukemia): 67.4 µM
- TGI (RXF 393 renal): > 100 µM
- TGI (SF-268 CNS): 74.4 µM
- TGI (SF-295 CNS): 28.9 µM
- TGI (SF-539 CNS): 23.2 µM
- TGI (SK-MEL-2 melanoma): 37.7 µM
- TGI (SK-MEL-28 melanoma): 52.7 µM
- TGI (SK-MEL-5 melanoma): 34.9 µM
- TGI (SK-OV-3 ovarian): 40.8 µM
- TGI (SN12C renal): 54.3 µM
- TGI (SNB-19 CNS): > 100 µM
- TGI (SR leukemia): > 100 µM
- TGI (T-47D breast): 47.9 µM
- TGI (TK-10 renal): 39.3 µM
- TGI (U251 CNS): 33 µM
- TGI (UACC-257 melanoma): > 100 µM
- TGI (UACC-62 melanoma): 31.9 µM
- TGI (UO-31 renal): 39 µM

SMILES: OCC12C3C4C5C3C1C5C42 (stereo not given)
- TGI (786-0 renal): > 100 µM
- TGI (A498 renal): > 100 µM
- TGI (A549 NSCLC): > 100 µM
- TGI (ACHN renal): > 100 µM
- TGI (BT-549 breast): > 100 µM
- TGI (CAKI-1 renal): > 100 µM
- TGI (CCRF-CEM leukemia): > 100 µM
- TGI (COLO 205 colon): > 100 µM
- TGI (DU-145 prostate): > 100 µM
- TGI (EKVX NSCLC): > 100 µM
- TGI (HCT-116 colon): > 100 µM
- TGI (HCT-15 colon): > 100 µM
- TGI (HL-60(TB) leukemia): > 100 µM
- TGI (HOP-62 NSCLC): > 100 µM
- TGI (HOP-92 NSCLC): > 100 µM
- TGI (HS 578T breast): > 100 µM
- TGI (HT29 colon): > 100 µM
- TGI (IGROV1 ovarian): > 100 µM
- TGI (K-562 leukemia): > 100 µM
- TGI (LOX IMVI melanoma): > 100 µM
- TGI (M14 melanoma): > 100 µM
- TGI (MALME-3M melanoma): > 100 µM
- TGI (MCF7 breast): > 100 µM
- TGI (MDA-MB-231 breast): > 100 µM
- TGI (MDA-MB-435): > 100 µM
- TGI (MDA-N): > 100 µM
- TGI (MOLT-4 leukemia): > 100 µM
- TGI (NCI-H226 lung): > 100 µM
- TGI (NCI-H23 lung): > 100 µM
- TGI (NCI-H460 lung): > 100 µM
- TGI (NCI-H522 lung): > 100 µM
- TGI (NCI/ADR-RES ovarian): > 100 µM
- TGI (OVCAR-3 ovarian): > 100 µM
- TGI (OVCAR-4 ovarian): > 100 µM
- TGI (OVCAR-5 ovarian): > 100 µM
- TGI (OVCAR-8 ovarian): > 100 µM
- TGI (PC-3 prostate): > 100 µM
- TGI (RXF 393 renal): > 100 µM
- TGI (SF-268 CNS): > 100 µM
- TGI (SF-295 CNS): > 100 µM
- TGI (SF-539 CNS): > 100 µM
- TGI (SK-MEL-2 melanoma): > 100 µM
- TGI (SK-MEL-28 melanoma): > 100 µM
- TGI (SK-MEL-5 melanoma): > 100 µM
- TGI (SK-OV-3 ovarian): > 100 µM
- TGI (SN12C renal): > 100 µM
- TGI (SNB-19 CNS): > 100 µM
- TGI (SNB-75 CNS): > 100 µM
- TGI (SR leukemia): > 100 µM
- TGI (SW-620 colon): > 100 µM
- TGI (T-47D breast): > 100 µM
- TGI (TK-10 renal): > 100 µM
- TGI (U251 CNS): > 100 µM
- TGI (UACC-257 melanoma): > 100 µM
- TGI (UACC-62 melanoma): > 100 µM
- TGI (UO-31 renal): > 100 µM

SMILES: Cc1ccccc1-n1c(=O)c2ncn(C3CCCO3)c2n(-c2ccccc2C)c1=S (stereo not given)
- TGI (786-0 renal): > 100 µM
- TGI (A498 renal): > 100 µM
- TGI (A549 NSCLC): > 100 µM
- TGI (ACHN renal): > 100 µM
- TGI (BT-549 breast): > 100 µM
- TGI (CAKI-1 renal): > 100 µM
- TGI (CCRF-CEM leukemia): > 100 µM
- TGI (COLO 205 colon): > 100 µM
- TGI (DU-145 prostate): > 100 µM
- TGI (EKVX NSCLC): > 100 µM
- TGI (HCC-2998 colon): > 100 µM
- TGI (HCT-116 colon): > 100 µM
- TGI (HCT-15 colon): > 100 µM
- TGI (HL-60(TB) leukemia): > 100 µM
- TGI (HOP-62 NSCLC): > 100 µM
- TGI (HOP-92 NSCLC): > 100 µM
- TGI (HS 578T breast): > 100 µM
- TGI (HT29 colon): > 100 µM
- TGI (IGROV1 ovarian): > 100 µM
- TGI (K-562 leukemia): > 100 µM
- TGI (KM12 colon): > 100 µM
- TGI (LOX IMVI melanoma): > 100 µM
- TGI (M14 melanoma): > 100 µM
- TGI (MALME-3M melanoma): > 100 µM
- TGI (MCF7 breast): > 100 µM
- TGI (MDA-MB-231 breast): > 100 µM
- TGI (MDA-MB-435): > 100 µM
- TGI (MDA-N): > 100 µM
- TGI (MOLT-4 leukemia): > 100 µM
- TGI (NCI-H226 lung): > 100 µM
- TGI (NCI-H23 lung): > 100 µM
- TGI (NCI-H522 lung): > 100 µM
- TGI (NCI/ADR-RES ovarian): > 100 µM
- TGI (OVCAR-3 ovarian): > 100 µM
- TGI (OVCAR-5 ovarian): > 100 µM
- TGI (OVCAR-8 ovarian): > 100 µM
- TGI (RPMI-8226 leukemia): > 100 µM
- TGI (RXF 393 renal): > 100 µM
- TGI (SF-268 CNS): > 100 µM
- TGI (SF-295 CNS): > 100 µM
- TGI (SF-539 CNS): > 100 µM
- TGI (SK-MEL-2 melanoma): > 100 µM
- TGI (SK-MEL-5 melanoma): > 100 µM
- TGI (SK-OV-3 ovarian): > 100 µM
- TGI (SN12C renal): > 100 µM
- TGI (SNB-19 CNS): > 100 µM
- TGI (SNB-75 CNS): > 100 µM
- TGI (SW-620 colon): > 100 µM
- TGI (T-47D breast): > 100 µM
- TGI (TK-10 renal): > 100 µM
- TGI (UACC-257 melanoma): > 100 µM
- TGI (UACC-62 melanoma): > 100 µM
- TGI (UO-31 renal): > 100 µM
